Here are results for two molecules from patent EP3720857B1, “2-OXO-5H-CHROMENO[4,3-B]PYRIDINES FOR USE IN THE TREATMENT OF HEPATITIS B” (Galapagos NV, priority 2017, dated 2019).

Assay [1] deals with HBV. Put plainly: Humanized mouse model of HBV infection in human-murine liver chimeric mice. Conditions: n=6. In kind it is in vivo, FRG KO mice. More on the design: unit not given here. How it is done:
(asterisks), the group treated with illustrative compound 46 at 3 mg/kg p.o. q.d. (asterisks), the group treated with illustrative compound 46 at 30 mg/kg p.o. q.d. (filled squares), the group treated with illustrative compound 44 at 1 mg/kg p.o. q.d. (crosses), and the group treated with illustrative compound 44 at 10 mg/kg p.o. q.d. (filled circles).
Six to ten weeks old male or female FRG KO mice (Fah-/-/Rag2-/-/Il2rg-/-triple knock-out - Yecuris Corporation P.O. Box 4645, Tualatin, OR 97062, USA) are used. They are provided with filtered tap water and standard chow ad libitum and maintained at 22 ± 2°C in 55 ± 10% humidity on a 12h light/dark cycle.
Each mouse is repopulated by intra splenic injection of 1 to 2 10^6 human hepatocytes (Life Technologies ref HMCS2SA). To allow a progressive and efficacious repopulation, drinking water is regularly supplemented with Nitisinone (Yecuris, lot TNAK0002). The repopulation rate is controlled by hAlb dosage in serum (Euromedex ref E88-129). About 3 to 4 months after the human hepatocyte injection, mice for which repopulation is successful reach an hAlb level >1g/L and can be used for HBV infection.
The test compounds for p.o administration are formulated in Solutol at 2% (Sigma : Kolliphor hS15 12966-1kg lot BCBM0868V) and methylcellulose 0.5% at 98%
Each mouse is injected with HBV-2015 batch ([…]) with an inoculum of 1.38 10^8 GE HBV (0.2 mL) via tail vein.
Six to seven weeks after infection, blood is sampled under isoflurane anesthesia by retro-orbital puncture. HBsAg is dosed in serum by Elisa assay (Immunodiagnostic, ref HBSAG EIA). HBV DNA level is measured in the mice serum using qPCR (SYBR green). Only mice reaching HBsAg level above 1000UI/mL are kept and randomized.
Treatment is given for 5 weeks according to body weight.
Body weight is recorded every week.
Between Day 7 and Day 11, a steady state PK is performed with sampling of blood under isoflurane anesthesia by retro-orbital puncture at T=0, 1h, 3h, 6h post treatment. Plasma are frozen before decontamination with ethanol absolute 80% and transfer to bioanalysis laboratory for compound dosage by LCMS-MS.
At […], D8, D15, D22 and D28, blood is sampled under isoflurane anesthesia by retro-orbital puncture. To follow compounds efficacy, HBsAg is dosed in serum by Elisa assay (Immunodiagnostic, ref HBSAG EIA) and HBV DNA level is measured in serum using qPCR (SYBR green).
After 5 weeks of treatment, mice are euthanized 2 hours after the last dosing for liver and blood collection.
In blood HBsAg is measured by Elisa assay, HBV DNA by qPCR and compound level by LCMS-MS.
In liver HBV DNA is measured by qPCR, compound level by LCMS-MS, pgRNA by RT-qPCR, HBcAg by immunohistochemistry (Dako ref B0586).
When subjected to this protocol, the following results for illustrative compounds of the invention are obtained. Table VII. Infected mice HBsAg blood level variation

Assay [2] relates to HBV. Described as above. In kind it is in vivo, FRG KO mice. More on the design: unit not given here. Conditions: D1, mean, n=6.

On to `COCCCOc1cc2c(cc1F)-c1c(cc(C(=O)O)c(=O)n1C1CC1)[C@H](C(C)C)O2` [Compound 44, (5S)-1-cyclopropyl-9-fluoro-5-isopropyl-8-(3-methoxypropoxy)-2-oxo-5H-chromeno[4,3-b]pyridine-3-carboxylic acid], for which the “Infected mice HBsAg blood level” value is 4.5 in the assay with HBV [1] (1 mg/kg p.o q.d, D1, mean); 3.6 with HBV [1] (1 mg/kg p.o q.d, D8, mean); 3.5 with HBV [1] (1 mg/kg p.o q.d, D15, mean); 3.5 in the assay on HBV [1] (1 mg/kg p.o q.d, D22, mean); 3.6 in the assay on HBV [1] (1 mg/kg p.o q.d, D28, mean); 4.4 with HBV [1] (10 mg/kg p.o q.d, D1, mean). Also, the “Infected mice HBsAg blood level” value is on record as 3.4 in the assay with HBV [1] (10 mg/kg p.o q.d, D8, mean); 3.5 in the assay on HBV [1] (10 mg/kg p.o q.d, D15, mean); 3.4 with HBV [1] (10 mg/kg p.o q.d, D22, mean); 3.4 in the assay on HBV [1] (10 mg/kg p.o q.d, D28, mean).
As for `COCCCOc1cc2c(cc1Cl)-c1c(cc(C(=O)O)c(=O)n1C1CC1)[C@H](C1(C)COC1)O2` [Compound 46, (5R)-9-chloro-1-cyclopropyl-8-(3-methoxypropoxy)-5-(3-methyloxetan-3-yl)-2-oxo-5H-chromeno[4,3-b]pyridine-3-carboxylic acid], the “Infected mice HBsAg blood level” value in the assay on HBV [1] (0.3 mg/kg p.o q.d, D8, mean) was 3.7; in the assay on HBV [1] (0.3 mg/kg p.o q.d, D15, mean), 3.8; in the assay on HBV [1] (0.3 mg/kg p.o q.d, D22, mean) it was 3.9; in the assay on HBV [1] (0.3 mg/kg p.o q.d, D28, mean), 3.7; in the assay with HBV [1] (3 mg/kg p.o q.d, D8, mean), 3.4; in the assay with HBV [1] (3 mg/kg p.o q.d, D15, mean) it was 3.4. The “Infected mice HBsAg blood level” value in the assay with HBV [1] (3 mg/kg p.o q.d, D22, mean) is 3.4; in the assay with HBV [1] (3 mg/kg p.o q.d, D28, mean) it was 3.4; with HBV [1] (30 mg/kg p.o q.d, D1, mean), 4.4; with HBV [1] (30 mg/kg p.o q.d, D8, mean), 3.5; with HBV [1] (30 mg/kg p.o q.d, D15, mean) it was 3.5; in the assay on HBV [1] (30 mg/kg p.o q.d, D22, mean), 3.4. The “Infected mice HBsAg blood level” value came out at 3.5 with HBV [1] (30 mg/kg p.o q.d, D28, mean); 4.4 with HBV [2] (0.3 mg/kg p.o q.d); 4.4 with HBV [2] (3 mg/kg p.o q.d).
